Measurements taken from ChEMBL document CHEMBL1153286, “Synthesis and biological evaluation of sulfonylurea and thiourea derivatives substituted with benzenesulfonamide groups as potential hypoglycemic agents” (Bioorg Med Chem Lett, 2009).
Active and inactive are the calls of the source. The calls are words filed in the database; no cut-off is given here.

Columns and labels:
[1] = Increase in insulin release in rat pancreatic cells at 100 umol/L after 6 hrs by radioimmunoassay relative to basal level; assay type: functional
[2] = Half life in rat at 2.5 mg/kg, iv; assay type: ADME, organism-based; design: dose 2.5 mg/kg, route intravenous; conditions: in vivo
Mus musculus [3] = assay: Reduction of plasma glucose level in fasted C57BL/6J mouse at 20 mg/kg, po administered daily for 3 days measured on day 5 after 6 hrs by glucose oxidase trinder method; assay type: functional; design: scale not given: the % may be the effect or the level left
Adipocyte [4] = assay: Effect on 2-deoxy-D-[1-3H]glucose transport in Sprague-Dawley rat adipocytes at 10 uM in presence of insulin by liquid scintillation counting; assay type: functional
Mus musculus [5] = assay: Reduction of plasma glucose level in fasted C57BL/6J mouse at 7 mg/kg, po administered daily for 3 days measured on day 5 by glucose oxidase trinder method; assay type: functional, organism-based; design: dose 7 mg/kg
[6] = Volume of distribution in rat at 2.5 mg/kg, iv or 5 mg/kg, po; assay type: ADME, organism-based; conditions: in vivo
[7] = Antiplatelet activity in human platelets assessed as inhibition of ADP-induced platelet aggregation; assay type: functional, cell-based
Adipocyte [8] = assay: Increase in glucose absorption in Sprague-Dawley rat adipocytes at 100 uM by liquid scintillation counting relative to basal level; assay type: functional
[9] = Tmax in rat at 2.5 mg/kg, iv or 5 mg/kg, po; assay type: ADME, organism-based; conditions: in vivo
[10] = Effect on insulin release in rat pancreatic cells at 10 umol/L after 6 hrs by radioimmunoassay; assay type: functional
[11] = Effect on insulin release in rat pancreatic cells at 100 umol/L after 6 hrs by radioimmunoassay; assay type: functional
Adipocyte [12] = assay: Effect on 2-deoxy-D-[1-3H]glucose transport in Sprague-Dawley rat adipocytes at 10 uM in absence of insulin by liquid scintillation counting; assay type: functional
[13] = Clearance in rat at 2.5 mg/kg, iv or 5 mg/kg, po; assay type: ADME, organism-based; conditions: in vivo
[14] = Effect on insulin release in rat pancreatic cells at 1 umol/L after 6 hrs by radioimmunoassay; assay type: functional
Adipocyte [15] = assay: Effect on 2-deoxy-D-[1-3H]glucose transport in Sprague-Dawley rat adipocytes at 1 uM in presence of insulin by liquid scintillation counting; assay type: functional
Mus musculus [16] = assay: Protection against collagen-epinephrine-induced mortality in Chinese Kunming cerebral thrombosis mouse model assessed as survival rate at 40 mg/kg, po administered once daily for 7 days measured on day 7 within 15 mins of collagen-epinephrine challenge; assay type: functional
Adipocyte [17] = assay: Effect on 2-deoxy-D-[1-3H]glucose transport in Sprague-Dawley rat adipocytes at 100 uM in absence of insulin by liquid scintillation counting; assay type: functional
Mus musculus [18] = assay: Reduction of plasma glucose level in fasted C57BL/6J mouse at 2.5 mg/kg, po administered daily for 3 days measured on day 5 by glucose oxidase trinder method; assay type: functional, organism-based; design: dose 2.5 mg/kg
[19] = Cmax in rat at 2.5 mg/kg, iv or 5 mg/kg, po; assay type: ADME, organism-based; conditions: in vivo
[20] = Oral bioavailability in rat at 5 mg/kg, po; assay type: ADME, organism-based; conditions: in vivo
Mus musculus [21] = assay: Protection against collagen-epinephrine-induced mortality in Chinese Kunming cerebral thrombosis mouse model assessed as survival rate at 10 mg/kg, po administered once daily for 7 days measured on day 7 within 15 mins of collagen-epinephrine challenge; assay type: functional
Rattus norvegicus = assay: AUC in rat at 5 mg/kg, po; assay type: ADME, organism-based, Plasma; design: dose 5 mg/kg, route oral; conditions: in vivo
Mus musculus [22] = assay: Protection against collagen-epinephrine-induced mortality in Chinese Kunming cerebral thrombosis mouse model assessed as survival rate at 20 mg/kg, po administered once daily for 7 days measured on day 7 within 15 mins of collagen-epinephrine challenge; assay type: functional
Adipocyte [23] = assay: Effect on 2-deoxy-D-[1-3H]glucose transport in Sprague-Dawley rat adipocytes at 100 uM in presence of insulin by liquid scintillation counting; assay type: functional
[24] = Half life in rat at 5 mg/kg, po; assay type: ADME, organism-based; design: dose 5 mg/kg, route oral; conditions: in vivo
[25] = Antiplatelet activity in human platelets assessed as inhibition of arachidonic acid-induced platelet aggregation; assay type: functional, cell-based
Adipocyte [26] = assay: Effect on 2-deoxy-D-[1-3H]glucose transport in Sprague-Dawley rat adipocytes at 1 uM in absence of insulin by liquid scintillation counting; assay type: functional

CC1CCC(NC(=O)NS(=O)(=O)c2ccc(CCNS(=O)(=O)c3ccc(Br)cc3)cc2)CC1 (configuration not stated)
fold change (FC) [1]: 3.64 | half-life [2]: 1.91 h | Activity (Mus musculus [3]): 50% | Activity (Adipocyte [4]): 7979.94 disintegrations/minute | Activity (Mus musculus [5]): Active | Vd [6]: 0.78 L/kg | IC50 [7]: 3000 nM | fold change (FC) (Adipocyte [8]): 1.73 | Tmax [9]: 0.83 h | Activity [10]: 65.21 uIU/ml | Activity [11]: 86.08 uIU/ml | Activity (Adipocyte [12]): 6512.65 disintegrations/minute | clearance [13]: 6 mL/min | Activity [14]: 40.79 uIU/ml | Activity (Adipocyte [15]): 5996.43 disintegrations/minute | survival at 40 mg/kg (Mus musculus [16]): 72.7% | Activity (Adipocyte [17]): 7674.84 disintegrations/minute | Activity (Mus musculus [18]): Active | Cmax [19]: 3330 ng/mL | bioavailability [20]: 52.7% | survival at 10 mg/kg (Mus musculus [21]): 27.3% | AUC (Rattus norvegicus): 10000 ng·h/mL | survival at 20 mg/kg (Mus musculus [22]): 45.5% | Activity (Adipocyte [23]): 8486.79 disintegrations/minute | half-life [24]: 1.77 h | IC50 [25]: 210 nM | Activity (Adipocyte [26]): 4871.74 disintegrations/minute
